Assay results published in patent publication US20060264372A1, “Process for the synchronization of ovulation for timed breeding without heat detection” (priority 2003, published 2006).

How the values were obtained:
[1] = tested on: mature postpartum sows; test: Intravulvar deslorelin at estrus detection in mature postpartum sows, AI breeding (Example 2); assay type: in vivo, swine; settings: per litter; 50 μg intravulvar at first estrus detection
Description: Sows were assigned randomly in blocks of two to either control or to be injected intravulvar with 50 mcg of deslorelin in SAIB at the time of estrus detection for sows first detected in estrus in the a.m. and 12 hours later for those first detected in estrus in the p.m. Treated animals were bred AI upon detected estrus and again 24 hours later if still in estrus. Controls received a saline injection on first detected estrus behavior estrus detection and were bred according to the farm's normal procedures. Saline sows bred at detected estrus consistent with farm sows. Deslorelin sows injected intravulvar with 1 ml (50 μg deslorelin acetate) at first estrus detection and AI, then AI again if in estrus the next day. Live piglet number 0.6> in Deslorelin versus Saline sows.

[2] = tested on: postpartum sows; test: Timed deslorelin injection 96 hours post-weaning and single timed insemination without estrus detection (Example 3); assay type: in vivo, swine; settings: 50 mcg in SAIB 96 hours post-weaning
Description: Approximately 170 postpartum sows were randomly divided into two equal groups comprised of controls and treated. Following weaning, the controls were detected for estrus and bred following the normal standard operating procedures for the farms on which they resided. The treated sows received a 50 mcg dose of deslorelin in SAIB at 96 hours post-weaning and were bred with a single insemination 28±2 hours later with no regard to estrus detection. The sows were examined for pregnancy by ultrasound at 21 days and slaughtered around 28 days post breeding. The entire reproductive tract was removed and corpora lutea and embryos were counted.

## CCNC(=O)[C@@H]1CCCN1C(=O)[C@H](CCCN=C(N)N)NC(=O)[C@H](CC(C)C)NC(=O)[C@@H](Cc1c[nH]c2ccccc12)NC(=O)[C@H](Cc1ccc(O)cc1)NC(=O)[C@H](CO)NC(=O)[C@H](Cc1c[nH]c2ccccc12)NC(=O)[C@H](Cc1cnc[nH]1)NC(=O)[C@@H]1CCC(=O)N1 [Deslorelin, deslorelin]
[1]
  Live piglet number, greater versus Saline sows: 0.6
[2]
  Embryo Survival: 64%
[2]; single insemination 28±2 hours later, 84 in group
  Sows Pregnant: 60
